Assay results from patent US11918693B2, “Ibuprofen and acetaminophen tablet” (GlaxoSmithKline Consumer Healthcare Holdings (US) LLC, priority 2019, dated 2024).

Tested on: patients with moderate-severe pain after ≥3 third molar extractions
Test: Study 2: phase 3 single-dose dental pain study, FDC vs IBU 250 mg, APAP 650 mg and placebo
Format: in vivo, human
Conditions: for Dizziness, treatment-emergent adverse event, n (%) / Flushing, treatment-emergent adverse event, n (%) / Headache, treatment-emergent adverse event, n (%) / Nausea, treatment-emergent adverse event, n (%) / Vomiting, treatment-emergent adverse event, n (%): Single-Dose Study 2; for SPID[11]0-8, Tx Diff vs. placebo: first treatment − second treatment, IBU 250 mg, APAP 650 mg; for Number (%) of patients with treatment failure: 12-hour study
Method: Two Studies were performed, both single-center, phase 3, randomized, double-blind, parallel-group, placebo-controlled studies conducted in the United States. Study 2 was a single-dose study whereas Study 3 was a multiple-dose study. The studies were performed in compliance with the ethical principles originating in or derived from the Declaration of Helsinki and in compliance with all International Council for Harmonization Good Clinical Practice Guidelines, as well as all local regulatory requirements.
In Study 2, patients experiencing moderate-severe pain after ≥3 third molar extractions, with at least 2 with partial or complete mandibular impaction, were randomized 3:3:3:1 to receive single-dose FDC IBU/APAP 250 mg/500 mg (administered as 2 tablets of IBU 125 mg/APAP 250 mg), IBU 250 mg alone, APAP 650 mg alone, or placebo under double-blind conditions. Patients self-assessed pain severity and pain relief on site for 12 hours following administration of study medication.
Rescue medication consisted of tramadol hydrochloride 50-100 mg or codeine sulfate 15-60 mg, both immediate release, and patients could administer additional doses every 4-6 hours as needed up to the maximum labeled daily dose. Patients who took rescue medication remained at the study site for the full duration of each study (12 or 48 hours, respectively) and continued to perform assessments.
In both studies 2 and 3, patients were healthy adult males or females aged 18-40 years inclusive, who had undergone surgical extraction of ≥3 third molar teeth (≥2 must have been partial or complete bony mandibular impactions). Other key entry criteria included moderate-severe pain confirmed by a rating of ≥50 mm on a 100-mm visual analog pain severity rating (PSR) scale within approximately 5 hours after completion of surgery and use of only the following preoperative medications/anesthetics: topical benzocaine, a short-acting parenteral local anesthetic (mepivacaine or lidocaine) with or -without a vasoconstrictor and/or nitrous oxide, and no contraindications to the study or rescue medications.
In Study 2, enrolled patients received one of 4 treatments: 1) placebo (administered as 2 tablets); 2) FDC IBU/APAP 250 mg/500 mg (administered as 2 caplets of IBU 125 mg/APAP 250 mg); 3) IBU 250 mg (administered as 2 caplets of IBU 125 mg); or APAP 650 mg (administered as 2 tablets of APAP 325 mg).
At baseline, patients provided self-ratings of pain severity using categorical and numerical PSR scales. The categorical PSR used a 4-point scale (none, mild, moderate, severe), with each category assigned a number from 0 (none) to 3 (severe). Patients reporting at least moderate pain on the categorical PSR at baseline completed a 100-mm visual analog scale. A score of at least 50 mm confirmed eligibility for the study. Additionally, an 11-point (0-10; 0=none to 10=worst possible pain) numerical PSR scale was also used to assess pain.
Once study treatment was administered, the categorical PSR, numerical PSR, and a 5-point categorical pain relief rating scale (0=none, 1=a little, 2=some, 3=a lot, 4=complete) were obtained at predefined assessment times to assess pain and pain relief. In Study 2 (single-dose trial), these assessments were performed at 0.25, 0.5, 1, 1.5, 2, 3, 4, 5, 6, 7, 8, 9, 10, 11, and 12 hours post-treatment. In Study 3 (multiple-dose trial), these assessments were performed at the same time points as in Study 2 up to 12 hours and also at 16, 24, 32, 40, and 48 hours post-treatment Additional evaluations included patient assessments of time to first perceptible pain relief (TFPR), defined as the time that a patient first began to feel any pain-relieving effect whatsoever of the drug and time to meaningful pain relief (TMPR), defined as the time that a patient experienced pain relief that was meaningful to that individual, using the double-stopwatch method, see Mehlisch D R et al., 2010, ibid. […]

[1] = IBU dose 250 mg, APAP dose 650 mg
[2] = Study 2, single oral dose, IBU dose 250 mg, APAP dose 650 mg

## CC(C)Cc1ccc(C(C)C(=O)O)cc1 (centres unmarked) [IBU, 2-(4-isobutylphenyl) propionic acid]
[1]
  Dizziness, treatment-emergent adverse event, n (%): 6 (3.4) n (%)
  Flushing, treatment-emergent adverse event, n (%): 2 (1.1) n (%)
  Headache, treatment-emergent adverse event, n (%): 3 (1.7) n (%)
  Nausea, treatment-emergent adverse event, n (%): 24 (13.7) n (%)
  Vomiting, treatment-emergent adverse event, n (%): 15 (8.6) n (%)
Study 2, LSM difference
  SPID[11]0-8, Tx Diff vs. placebo: 24.42
Study 2, LSM difference, comparator APAP 650 mg, IBU dose 250 mg
  SPID[11]0-8, Tx Diff vs. APAP: 9.10
[2]
  Cumulative proportion of treatment failures after 8 hours: 33.1%
  Median duration of pain relief (median time to treatment failure): 10.1 h
  Median duration of pain relief (time to treatment failure): 608.5 min
  Median time to onset of first perceptible pain relief (TFPR): 24.6 min
  Median time to onset of meaningful pain relief (TMPR): 65.9 min
  Number (%) of patients with meaningful relief: 139 (79.4) n (%)
  Number (%) with event, first perceptible pain relief table: 139 (79.4) n (%)
  SPID[11]0-8, Mean (SD): 28.9 (20.5)
  SPID[11]0-8, Median: 30.5
  Number (%) of patients with treatment failure: 105 (60.0) n (%)

## CC(=O)Nc1ccc(O)cc1 [APAP, N-(4-hydroxyphenyl)acetamide]
[1]
  Dizziness, treatment-emergent adverse event, n (%): 12 (7.3) n (%)
  Flushing, treatment-emergent adverse event, n (%): 1 (0.6) n (%)
  Headache, treatment-emergent adverse event, n (%): 4 (2.4) n (%)
  Nausea, treatment-emergent adverse event, n (%): 33 (20.0) n (%)
  Vomiting, treatment-emergent adverse event, n (%): 20 (12.1) n (%)
Study 2, LSM difference
  SPID[11]0-8, Tx Diff vs. placebo: 15.32
[2]
  Cumulative proportion of treatment failures after 8 hours: 51.5%
  Median duration of pain relief (time to treatment failure): 449.0 min
  Median time to onset of first perceptible pain relief (TFPR): 24.2 min
  Median time to onset of meaningful pain relief (TMPR): 56.6 min
  Number (%) of patients with meaningful relief: 118 (71.5) n (%)
  Number (%) with event, first perceptible pain relief table: 118 (71.5) n (%)
  SPID[11]0-8, Mean (SD): 19.4 (20.0)
  SPID[11]0-8, Median: 16.8
  Number (%) of patients with treatment failure: 105 (63.6) n (%)
